# Measured values taken from US12624395B2, “Process for identifying a stress state and/or for assessing the stress response level in a subject” (ADISSEO FRANCE S.A.S., priority 2019, dated 2026).
# Key:
# [1] = test system: Ross 308 male broiler chicks; assay: Stress, non-adaptation and adaptation scores from gene signatures (RT-qPCR) in the chicken-paraquat model; assay type: in vivo
# Excerpt: (§1) All experimental procedures used in the current study were approved by the Ethics and Research Committee of the institution conducting the study. A total of 144 one-day-old Ross 308 male broiler chicks, with an average body weight (BW) of 39 g, were reared from D1 to D21. They were allocated in 72 battery cages (0.5×0.42 m^2) with wire floors (6 chicks/cage) in environmentally controlled rooms. The birds were randomly assigned to treatment pens with similar starting weights. Each cage was equipped with one trough feeder and one drinker. Birds had ad libitum access to mash feeds and water during all study. Average temperature was 33° C. at placement, being reduced by 1° C. every 2 days until 23° C. to provide comfort throughout the study. The lighting program was 18 hours light and 6 hours dark during each 24 hours period throughout the trial.
# The experimental design was a completely randomized factorial design, consisting of a placebo or oxidative stress groups thus two experimental treatments, and 12 replicates per treatment with 6 birds for each replicate. The oxidative stress was applied only from D7 to D14, through the supplementation of a xenobiotic, i.e. paraquat dichloride hydrate (Sigma-Aldrich Company Ltd., Dorset, UK), through the water supply system at the dose of 110 μg/mL. This dosage was achieved by using water containers, individually located in each cage. The control group received standard water (placebo) on the same period using similar containers. A starter and grower diets were provided from D1 to D7, and D8 to D21, respectively. The basal diets were standard wheat/corn-soy-based broiler diets, and were formulated to meet or exceed the nutrient requirements of broilers, as recommended by the NRC (1994). Body weight (BW) was recorded on D1, D7, D14 and D21. On D14 and D21, one bird per pen replicate of each treatment was sacrificed for tissue collection. Briefly, 100 mg of tissue (breast, liver and ileum) were immerged in 2-mL Eppendorf tubes containing 1 mL RNAlater® (Sigma-Aldrich), and kept at −20° C. until analysis. RNA extraction and purification was conducted as described in Example 1.
# To remove traces of contaminant genomic DNA, 2.5 μg of total RNA was treated with 2.5 U of DNasel (ThermoFischer) in a final volume of […] for 15 min at 25° C. Next, DNase was inhibited by addition of EDTA to a final concentration of 8 mM and incubated for 10 min at 70° C. Half of the DNase-treated RNA sample was reverse transcribed (RT), the other half was kept as no-RT control. RNA was denatured in a total volume of 17.6 μL containing 1.25 μg total RNA, 5 mM of nonanucleotide random primer (dN9) and 0.5 μM each dNTPs (Thermofischer). This mix was heated to 70° C. for 5 min in a thermocycler (SimpliAmp™, Life Technologies). Then, RT-AMV buffer (Life Sciences Advance Technology) was added together with 40 U RNAsine (Promega) and 0.25 U AMV Reverse Transcriptase (RT) (Life Sciences Advance Technology), and the volume was adjusted to 21.6 μL. Primers were hybridized by incubation at 25° C. for 15 min, and extension was conducted for 2 hours at 45° C. in thermocycler. No-RT controls were treated in parallel, but addition of AMV-RT enzyme was omitted.
# For the quantitative PCR reaction, 1 μL of cDNA sample diluted to ⅓ was mixed to 2 μL specific primers mix 2.5 mM each and 5 μL of 2× Takyon sybrgreen—No ROX (Eurogentec) in a final volume of 10 μL. Each PCR reaction was set in triplicate. Amplification was conducted on a LC480 LightCycler® Nano (Roche) using 384 well plates and the following program: 1 initial activation cycle at 95° C. for 3 min, then 45 cycles [95° C. for 10 sec; 60° C. for 15 sec; 72° C. for 15 sec]. Specificity of each amplification was monitored by fusion curve technic detecting a single peak corresponding to one single amplicon, consisting in an initial denaturation at 95° C. for 5 sec, followed by ramping from 55 to 95° C. at 0.11° C./sec, and 5 acquisitions per sec. […]
# [2] = assay type: in vivo, chicken; details: paraquat-treated chickens, 110 μg/mL in water supply D7 to D14
# Excerpt: as §1
# The experimental design was a completely randomized factorial design, consisting of a placebo or oxidative stress groups thus two experimental treatments, and 12 replicates per treatment with 6 birds for each replicate. The oxidative stress was applied only from D7 to D14, through the supplementation of a xenobiotic, i.e. paraquat dichloride hydrate (Sigma-Aldrich Company Ltd., Dorset, UK), through the water supply system at the dose of 110 μg/mL. […] Body weight (BW) was recorded on D1, D7, D14 and D21. […]
# [3] = 4 most conserved genes signature
# [4] = twenty-six genes or four most conserved genes signature, FIG. 5, bottom
compound,measurement,setting,value
"C[n+]1ccc(-c2cc[n+](C)cc2)cc1 [paraquat, paraquat dichloride hydrate]",Adaptation Score (%),"[1]; 4-gene signatures, mean ± SD",0.0 ± 0.0%
same,Non-adaptation Score (%),"[1]; 4-gene signatures, mean ± SD",78.2 ± 29.5%
same,Stress Score (%),"[1]; 4-gene signatures, mean ± SD",69.2 ± 21.6%
same,Adaptation Score (%),[1]; [3],0%
same,Non-adaptation Score (%),[1]; [3],100%
same,Stress Score (%),"[1]; 4 most conserved genes signature (Anxa1, Anxa2, Chac1, Postn)",75%
same,Adaptation Score (%),"[1]; 5-gene signatures, mean ± SD",0.0 ± 0.0%
same,Non-adaptation Score (%),"[1]; 5-gene signatures, mean ± SD",79.4 ± 24.8%
same,Stress Score (%),"[1]; 5-gene signatures, mean ± SD",69.2 ± 18.9%
same,Adaptation Score (%),"[1]; 6-gene signatures, mean ± SD",0.0 ± 0.0%
same,Non-adaptation Score (%),"[1]; 6-gene signatures, mean ± SD",79.8 ± 21.5%
same,Stress Score (%),"[1]; 6-gene signatures, mean ± SD",69.2 ± 16.8%
same,Adaptation Score (%),"[1]; 7-gene signatures, mean ± SD",0.0 ± 0.0%
same,Non-adaptation Score (%),"[1]; 7-gene signatures, mean ± SD",79.9 ± 19.0%
same,Stress Score (%),"[1]; 7-gene signatures, mean ± SD",69.2 ± 15.2%
same,Adaptation Score (%),"[1]; 8-gene signatures, mean ± SD",0.0 ± 0.0%
same,Non-adaptation Score (%),"[1]; 8-gene signatures, mean ± SD",80.0 ± 17.0%
same,Stress Score (%),"[1]; 8-gene signatures, mean ± SD",69.2 ± 13.8%
same,Adaptation Score (%),"[1]; 9-gene signatures, mean ± SD",0.0 ± 0.0%
same,Non-adaptation Score (%),"[1]; 9-gene signatures, mean ± SD",80.0 ± 15.4%
same,Stress Score (%),"[1]; 9-gene signatures, mean ± SD",69.2 ± 12.7%
same,Adaptation Score (%),"[1]; 10-gene signatures, mean ± SD",0.0 ± 0.0%
same,Non-adaptation Score (%),"[1]; 10-gene signatures, mean ± SD",80.0 ± 14.1%
same,Stress Score (%),"[1]; 10-gene signatures, mean ± SD",69.2 ± 11.7%
same,Adaptation Score (%),"[1]; 11-gene signatures, mean ± SD",0.0 ± 0.0%
same,Non-adaptation Score (%),"[1]; 11-gene signatures, mean ± SD",80.0 ± 13.0%
same,Stress Score (%),"[1]; 11-gene signatures, mean ± SD",69.2 ± 10.8%
same,Adaptation Score (%),"[1]; 12-gene signatures, mean ± SD",0.0 ± 0.0%
same,Non-adaptation Score (%),"[1]; 12-gene signatures, mean ± SD",80.0 ± 12.0%
same,Stress Score (%),"[1]; 12-gene signatures, mean ± SD",69.2 ± 10.0%
same,Adaptation Score (%),"[1]; 13-gene signatures, mean ± SD",0.0 ± 0.0%
same,Non-adaptation Score (%),"[1]; 13-gene signatures, mean ± SD",80.0 ± 11.0%
same,Stress Score (%),"[1]; 13-gene signatures, mean ± SD",69.2 ± 9.2%
same,Adaptation Score (%),"[1]; 14-gene signatures, mean ± SD",0.0 ± 0.0%
same,Non-adaptation Score (%),"[1]; 14-gene signatures, mean ± SD",80.0 ± 10.2%
same,Stress Score (%),"[1]; 14-gene signatures, mean ± SD",69.2 ± 8.5%
same,Adaptation Score (%),"[1]; 15-gene signatures, mean ± SD",0.0 ± 0.0%
same,Non-adaptation Score (%),"[1]; 15-gene signatures, mean ± SD",80.0 ± 9.4%
same,Stress Score (%),"[1]; 15-gene signatures, mean ± SD",69.2 ± 7.9%
same,Adaptation Score (%),"[1]; 16-gene signatures, mean ± SD",0.0 ± 0.0%
same,Non-adaptation Score (%),"[1]; 16-gene signatures, mean ± SD",80.0 ± 8.7%
same,Stress Score (%),"[1]; 16-gene signatures, mean ± SD",69.2 ± 7.3%
same,Adaptation Score (%),"[1]; 17-gene signatures, mean ± SD",0.0 ± 0.0%
same,Non-adaptation Score (%),"[1]; 17-gene signatures, mean ± SD",80.0 ± 7.9%
same,Stress Score (%),"[1]; 17-gene signatures, mean ± SD",69.2 ± 6.7%
same,Adaptation Score (%),"[1]; 18-gene signatures, mean ± SD",0.0 ± 0.0%
same,Non-adaptation Score (%),"[1]; 18-gene signatures, mean ± SD",80.0 ± 7.3%
same,Stress Score (%),"[1]; 18-gene signatures, mean ± SD",69.2 ± 6.2%
same,Adaptation Score (%),"[1]; 19-gene signatures, mean ± SD",0.0 ± 0.0%
same,Non-adaptation Score (%),"[1]; 19-gene signatures, mean ± SD",80.0 ± 6.6%
same,Stress Score (%),"[1]; 19-gene signatures, mean ± SD",69.2 ± 5.6%
same,Adaptation Score (%),"[1]; 20-gene signatures, mean ± SD",0.0 ± 0.0%
same,Non-adaptation Score (%),"[1]; 20-gene signatures, mean ± SD",80.0 ± 6.0%
same,Stress Score (%),"[1]; 20-gene signatures, mean ± SD",69.2 ± 5.0%
same,Adaptation Score (%),"[1]; 21-gene signatures, mean ± SD",0.0 ± 0.0%
same,Non-adaptation Score (%),"[1]; 21-gene signatures, mean ± SD",80.0 ± 5.3%
same,Stress Score (%),"[1]; 21-gene signatures, mean ± SD",69.2 ± 4.5%
same,Adaptation Score (%),"[1]; 22-gene signatures, mean ± SD",0.0 ± 0.0%
same,Non-adaptation Score (%),"[1]; 22-gene signatures, mean ± SD",80.0 ± 4.6%
same,Stress Score (%),"[1]; 22-gene signatures, mean ± SD",69.2 ± 3.9%
same,Adaptation Score (%),"[1]; 23-gene signatures, mean ± SD",0.0 ± 0.0%
same,Non-adaptation Score (%),"[1]; 23-gene signatures, mean ± SD",80.0 ± 3.9%
same,Stress Score (%),"[1]; 23-gene signatures, mean ± SD",69.2 ± 3.3%
same,Adaptation Score (%),"[1]; 24-gene signatures, mean ± SD",0.0 ± 0.0%
same,Non-adaptation Score (%),"[1]; 24-gene signatures, mean ± SD",80.0 ± 3.1%
same,Stress Score (%),"[1]; 24-gene signatures, mean ± SD",69.2 ± 2.7%
same,Adaptation Score (%),"[1]; 25-gene signatures, mean ± SD",0.0 ± 0.0%
same,Non-adaptation Score (%),"[1]; 25-gene signatures, mean ± SD",80.0 ± 2.2%
same,Stress Score (%),"[1]; 25-gene signatures, mean ± SD",69.2 ± 1.8%
same,Adaptation Score (%),"[1]; 26-gene signature, mean ± SD",0.0 ± 0.0%
same,Non-adaptation Score (%),"[1]; 26-gene signature, mean ± SD",80.0 ± 0.0%
same,Stress Score (%),"[1]; 26-gene signature, mean ± SD",69.2 ± 0.0%
same,non-adaptation (NA) score,[1]; [4],high
same,stress (S) score,[1]; [4],high
same,body weight change,[2],weight-loss
